In patent US10993957B2 (NuCana plc, priority 2011, dated 2021):
Like-named read-outs stand apart in the source and are kept apart here.

Experiments:
human UP = human UP (Homo sapiens, UniProt Q16831); experiment: Phosphorolysis by human UP, HPLC; conditions: 100 μM compound, room temperature, 0-40 min
Description: Reaction mixtures containing 100 μM test compound and recombinant TP or UP (human TP: 8.6 ng/μL; E. coli TP: 3.0 ng/μL; human UP: 4 ng/mL) in a total volume of 500 μL reaction buffer (10 mM TrisHCl; 300 μM NaCl; 1 mM EDTA; 2 mM KH2PO4/K2HPO4) were incubated at room temperature. At different time points (i.e. 0, 20, 40 min) 100 μL aliquots of the reaction mixtures were withdrawn and heated at 95° C. for 3 min to inactivate the enzyme. […] The separation of Urd from uracil was performed by a linear gradient from 100% separation buffer (see above) to 60% separation buffer+40% acetonitrile (3 min 100% separation buffer; 6 min linear gradient of 100% separation buffer to 60% separation buffer+40% acetonitrile; 6 min 60% separation buffer+40% acetonitrile, followed by equilibration at 100% separation buffer).

L1210/0 = experiment: Cytostatic assay, L1210/0 cells; assay type: cell-based, murine; conditions: Mus musculus; for IC50: read-out: IC50 L1210/0
Text: (§1) The cell lines employed were L1210/0 (a leukemia cell line), FM3A/0 (a breast cancer cell line), Cem/0 (an acute lymphoblastic leukemia cell line) and HeLa (a cervical cell line).

L1210/TK^− = experiment: Cytostatic assay, thymidine kinase-deficient L1210/TK^− cells; assay type: cell-based, murine; conditions: Mus musculus; for CC50: L1210, Table 1, read-out: CC50 L1210/TK^−; for IC50: L1210, Table 6, read-out: IC50 L1210/TK^−
FM3A/0 = experiment: Cytostatic assay, FM3A/0 cells; assay type: cell-based; conditions: Mus musculus
Description: The samples were assayed for biological activity versus a range of tumour cell lines with data recorded in Table 1 below. […] The cell lines employed were L1210/0 (a leukemia cell line), FM3A/0 (a breast cancer cell line), Cem/0 (an acute lymphoblastic leukemia cell line) and HeLa (a cervical cell line).

Cem/0 = experiment: Cytostatic assay, CEM/0 cells; assay type: cell-based, human; conditions: Homo sapiens, CCRF-CEM; for CC50: Table 1, read-out: CC50 Cem/0; for IC50: Table 6, read-out: IC50 Cem/0
Text: as §1

Cem/TK^− = experiment: Cytostatic assay, thymidine kinase-deficient CEM/TK^− cells; assay type: cell-based, human; conditions: Homo sapiens, CEM-TK(-); for IC50: Table 6, read-out: IC50 Cem/TK^−; for CC50: Table 1, read-out: CC50 Cem/TK^−
HeLa = experiment: Cytostatic assay, HeLa cells; assay type: cell-based; conditions: Homo sapiens, HeLa; for CC50: Table 1, read-out: CC50 HeLa; for IC50: Table 6, read-out: IC50 HeLa
Text: as §1

HeLa/TK^− = experiment: Cytostatic assay, HeLa/TK^− cells; assay type: cell-based; conditions: Homo sapiens, HeLa; for IC50: Table 6, read-out: IC50 HeLa/TK^−; for CC50: Table 1, read-out: CC50 HeLa/TK^−
Text: as §1

L1210.Hyor = experiment: Cytostatic assay, Mycoplasma hyorhinis-infected L1210 cells; conditions: for IC50: L1210, read-out: IC50 L1210.Hyor; for IC50(L1210.Hyor)/IC50(L1210/0): Table 7
Outline: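 Proliferation read by Coulter counting after 48 h exposure of compound-treated L1210 cells carrying M. hyorhinis infection (60,000 cells/well, DMEM with 10% FBS, 37 °C). Values also given as percent activity retained in infected cells.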

[1] = Stability in human serum by in situ 31P NMR; assay type: in vitro ADME; conditions: 37° C., after 13 h and 30 min
Description: The stability of the prodrug CPF-373 in the presence of human serum was studied using in situ ^31P NMR (202 MHz). The ProTide CPF-373 (1) (5.0 mg) was dissolved in DMSO (0.05 mL) and D2O (0.15 mL). Then the sample was transferred into an NMR tube, which was inserted in the NMR chamber at 37° C. (with enough solvent to obtain a control NMR reading of the blank). Then 0.3 ml human serum was quickly added to the sample in the NMR tube. NMR experiments were programmed to record data every 15 minutes for 12 hours and 30 minutes. Because of excess noise and poor shimming profiles (most likely due to the biological media and concentration), individual spectra were further processed. After normal Fourier transform processing, each spectrum was deconvoluted (Lorentz-Gauss deconvolution) to reveal solely the frequency and area of spectral peaks without the baseline. Data recorded were processed and analysed with the Bruker Topspin 2.1 program.
Chemical stability studies on the prodrug CPF-373 (1) have been performed by exposing the compound to human serum and to aqueous buffers (pH 1.0 and 8.0) using in situ ^31P NMR. […]
The stability of compound CPF 386 in the presence of human serum was investigated using in situ ^31P NMR. A control ^31P NMR data of compound CPF 386 in DMSO and D2O were recorded. […] The ^31P NMR data were recorded every 15 minutes over 14 h. […]

FM3A/TK^− = experiment: Cytostatic assay, FM3A/TK^− cells; assay type: cell-based; conditions: Mus musculus, read-out: CC50 FM3A/TK^−
Cem/hEnt-1 = experiment: Cytostatic assay, CEM cells containing the hEnt1 transporter; assay type: cell-based
Text: (§2) Data are mean (±SD) of at least two to four independent experiments. Table 8 identifies the phosphoramidate motif of compounds embodying the present invention, as discussed above with respect to Table 6, but with “Naph” standing for 1-naphthyl.

Cem/hEnt-0 = experiment: Cytostatic assay, CEM cells lacking the hEnt1 transporter; assay type: cell-based; conditions: Homo sapiens, CCRF-CEM, read-out: IC50 Cem/hEnt-0
Text: as §2

[2] = L1210/0, Table 1, read-out: CC50 L1210/0

Chain of human UP (Q16831 whole entry): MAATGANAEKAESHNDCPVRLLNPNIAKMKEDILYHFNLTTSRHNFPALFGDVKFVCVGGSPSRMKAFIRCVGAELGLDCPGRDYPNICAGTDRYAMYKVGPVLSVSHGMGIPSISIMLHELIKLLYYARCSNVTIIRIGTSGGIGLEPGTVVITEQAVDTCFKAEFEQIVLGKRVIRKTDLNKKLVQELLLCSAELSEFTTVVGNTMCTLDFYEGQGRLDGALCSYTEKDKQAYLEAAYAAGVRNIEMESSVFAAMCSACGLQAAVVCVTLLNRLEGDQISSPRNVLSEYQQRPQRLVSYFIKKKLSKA

Structure (SMILES) | CC50 (L1210/0; [2]) [µM] | IC50 (L1210/0; L1210/0, Table 6) [µM] | CC50 (L1210/TK^−) [µM] | IC50 (L1210/TK^−) [µM] | CC50 (Cem/0) [µM] | IC50 (Cem/0) [µM] | IC50 (Cem/TK^−) [µM] | CC50 (HeLa) [µM] | IC50 (HeLa) [µM] | IC50 (HeLa/TK^−) [µM] | IC50 (L1210/0; L1210/0, Table 7) [µM] | CC50 (Cem/TK^−) [µM] | CC50 (HeLa/TK^−) [µM] | IC50 (L1210.Hyor; Mus musculus) [µM] | IC50(L1210.Hyor)/IC50(L1210/0) (L1210.Hyor) | CC50 (FM3A/0; FM3A/0, read-out: CC50 FM3A/0) [µM] | other results
O=c1ccn([C@@H]2O[C@H](CO)[C@@H](O)[C@H]2O)c(=O)[nH]1 [uridine, reference compound] |  |  |  |  |  |  |  |  |  |  |  |  |  |  |  |  | Phosphorolysis by human UP (human UP): converted to uracil
O=c1[nH]cc(F)c(=O)[nH]1 [5-FU, 5-Fluorouracil, reference compound] | 0.33 ± 0.17 | 0.33 ± 0.17 | 0.32 ± 0.31 | 0.32 ± 0.31 | 18 ± 5 | 18 ± 5 | 12 ± 1 | 0.54 ± 0.12 | 0.54 ± 0.12 | 0.23 ± 0.01 |  |  |  |  |  |  | CC50 (FM3A/0; FM3A/0, Table 1, read-out: CC50 FM3A/0): 0.18 ± 0.02 µM
CCOC(=O)[C@H](C)NP(=O)(OC[C@H]1O[C@@H](n2cc(F)c(=O)[nH]c2=O)CC1O)Oc1cccc2ccccc12 (stereo partly drawn) [CPF 386, 5-Fluoro-2′deoxyuridine-5′-O-[1-naphthyl (ethoxy-L-alaninyl)] phosphate] | 0.031 ± 0.005 | 0.031 ± 0.005 | 0.36 ± 0.01 | 0.36 ± 0.01 | 0.25 ± 0.04 | 0.25 ± 0.04 | 1.6 ± 0.2 | 0.22 ± 0.04 | 0.22 ± 0.04 | 2.8 | 0.028 ± 0.0021 | 1.6 ± 0.2 | 2.8 | 0.095 ± 0.0028 | 3.4 |  | parent compound in reaction mixture with human serum [1]: 96%
CC(C)OC(=O)[C@H](C)NP(=O)(OC[C@H]1O[C@@H](n2cc(F)c(=O)[nH]c2=O)CC1O)Oc1ccccc1 (stereo partly drawn) [CPF 384, 5-Fluoro-2′deoxyuridine-5′-O-[phenyl(isopropoxy-L-alaninyl)] phosphate] | 0.076 ± 0.022 | 0.076 ± 0.022 | 1.1 ± 0.1 | 1.1 ± 0.1 | 1 ± 0.1 | 1 ± 0.1 | 30 ± 10 | 0.71 ± 0.15 | 0.71 ± 0.15 | 25 ± 11 | 0.05 ± 0.013 | 30 ± 10 | 25 ± 11 | 0.7 ± 0.1 | 14 | 0.36 ± 0.25 | CC50 (FM3A/TK^−): 13 ± 1 µM
CCOC(=O)C(C)(C)NP(=O)(OC[C@H]1O[C@@H](n2cc(F)c(=O)[nH]c2=O)CC1O)Oc1cccc2ccccc12 (stereo partly drawn) [CPF 396, 5-Fluoro-2′deoxyuridine-5′-O-[1-naphthyl (ethoxy-α,α-dimethylglycine)]phosphate] | 0.064 ± 0.008 | 0.064 ± 0.008 | 0.82 ± 0.16 | 0.82 ± 0.16 | 0.36 ± 0.05 | 0.36 ± 0.05 | 6.9 ± 1.8 |  | 0.2 ± 0.12 | 3.2 | 0.056 ± 0.04 | 6.9 ± 1.8 |  | 0.17 ± 0.03 | 3 |  | CC50 (L1210/0; L1210/0, Table 2, mycoplasma negative cells, read-out: CC50 L1210): 0.056 µM; % Retention (L1210.Hyor; CC50 L1210 × 100 ÷ CC50 L1210/Hyor): 33%; CC50 (L1210.Hyor; Mus musculus, L1210, read-out: CC50 L1210/Hyor): 0.17 µM; IC50 (Cem/hEnt-1; Homo sapiens, CCRF-CEM, read-out: IC50 Cem/hEnt-1): 0.21 ± 0.07 µM; IC50 (Cem/hEnt-1; read-out: IC50 Cem/hEnt-1 + NBMPR, in the presence of NBMPR): 0.62 µM; IC50 (Cem/hEnt-1; read-out: IC50 Cem/hEnt-1 + dipyridamole, in the presence of dipyridamole): 0.52 µM; IC50 (Cem/hEnt-0): 1.4 ± 0.2 µM
CCOC(=O)[C@H](C)NP(=O)(OC[C@H]1O[C@@H](n2cc(F)c(=O)[nH]c2=O)CC1O)Oc1ccccc1 (some centres unmarked) [CPF 383] | 0.13 ± 0.04 | 0.13 ± 0.04 | 0.94 ± 0.18 | 0.94 ± 0.18 | 0.92 ± 0.11 | 0.92 ± 0.11 | 14 | 0.48 ± 0.19 | 0.48 ± 0.19 | 9.8 ± 1.4 | 0.11 ± 0.0021 | 14 | 9.8 ± 1.4 | 0.54 ± 0.12 | 5 | 0.64 ± 0.57 | CC50 (FM3A/TK^−): 4.1 ± 2 µM
C[C@H](NP(=O)(OC[C@H]1O[C@@H](n2cc(F)c(=O)[nH]c2=O)CC1O)Oc1cccc2ccccc12)C(=O)OC1CCCCC1 (stereo partly drawn) [CPF 509, 5-Fluoro-2′deoxyuridine-5′-O-[1-naphthyl (cyclohexoxy-L-alaninyl)]phosphate] | 0.043 ± 0.023 | 0.043 ± 0.023 | 0.15 | 0.15 | 0.057 ± 0.055 | 0.057 ± 0.055 | 1 ± 0.1 | 0.09 ± 0.014 | 0.09 ± 0.014 |  | 0.036 ± 0.017 |  |  | 0.049 ± 0.004 | 1.4 | 0.31 ± 0.06 | 
